What was measured:
CYP1A2 = biological target: T1, CYP1A2 (Rattus norvegicus, UniProt P04799); assay: CYP probe substrate depletion in rat liver microsomes, HPLC; assay type: biochemical; conditions: typical CYP1A2 substrate (not named); 0-100 μM inhibitor
T1 construct: native full-length enzyme in rat liver microsomes
T1 sequence (P04799 2-513): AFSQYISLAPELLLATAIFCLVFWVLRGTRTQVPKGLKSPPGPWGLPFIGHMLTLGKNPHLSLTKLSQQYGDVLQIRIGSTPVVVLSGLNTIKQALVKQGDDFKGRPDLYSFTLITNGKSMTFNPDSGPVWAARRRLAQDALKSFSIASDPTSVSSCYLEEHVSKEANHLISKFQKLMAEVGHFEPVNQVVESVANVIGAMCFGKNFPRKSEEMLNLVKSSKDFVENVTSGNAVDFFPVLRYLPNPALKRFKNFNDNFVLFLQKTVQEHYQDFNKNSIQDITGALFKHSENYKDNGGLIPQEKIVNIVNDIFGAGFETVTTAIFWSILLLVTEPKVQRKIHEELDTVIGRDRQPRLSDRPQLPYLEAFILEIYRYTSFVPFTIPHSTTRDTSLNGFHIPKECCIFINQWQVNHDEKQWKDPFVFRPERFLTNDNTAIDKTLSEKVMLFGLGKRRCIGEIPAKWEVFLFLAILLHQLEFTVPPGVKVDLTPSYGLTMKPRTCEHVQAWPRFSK

CYP2C9 = tested on: T2, CYP2C9; assay: as above; assay type: biochemical; conditions: typical CYP2C9 substrate (not named); 0-100 μM inhibitor
T2 construct: gene Cyp2c11; native enzyme activity in rat liver microsomes

COc1cc2c(cc1O)C[C@H]1c3cc(O)c(OC)cc3CC[N@@+]1(C)C2 [pellodendrine]
IC50 (CYP1A2): 23 µM | IC50 (CYP2C9): 16.2 µM
